# Results from patent US20240210412A1, “SULFONYL-TRIAZOLE COMPOUNDS USEFUL AS LIGANDS AND INHIBITORS OF PROSTAGLANDIN REDUCTASE 2” (University of Virginia Patent Foundation, priority 2021, published 2024).
# Experiments:
# Assay in all cases: SILAC LC-MS ABPP
# Assay type in all cases: cell-based
# Details in all cases: 25 μM 2 h, live DM93 cells
# [1] = biological target: T1, Q96AT1 (Homo sapiens, UniProt Q96AT1)
# T1 construct: endogenous in cells; host or cells: DM93 cells (SILAC), treated live; soluble proteome analysed
# T1 sequence (Q96AT1 whole entry): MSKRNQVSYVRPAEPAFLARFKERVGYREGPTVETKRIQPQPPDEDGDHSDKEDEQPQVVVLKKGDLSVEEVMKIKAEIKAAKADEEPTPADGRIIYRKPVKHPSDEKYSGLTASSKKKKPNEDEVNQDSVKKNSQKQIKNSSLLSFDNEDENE
# Experimental: (§1) Cells were grown to 90-95% confluence before being washed once with warm, sterile DPBS (1×, 5 mL), followed by addition of 10 mL of serum-free media (supplemented with 1% L-glutamine) containing either DMSO or SuTEx fragment (in DMSO) was added. Light cells were treated with DMSO vehicle while the heavy cells were treated with DMSO or SuTEx fragment (in DMSO) and incubated for 2 hrs. After 2 hrs, the cells were treated with SuTEx alkyne probe (HHS475, 10 μL of 1000× DMSO stock) and incubated for an additional 2 hrs. The media was aspirated and cells washed with cold PBS (5 mL) and harvested. Cells were spun at 500×g for 5 min at 4° C. followed by removal of supernatant. Pellets were resuspended in 1 mL of cold DPBS and spun at 1,400×g for 3 min at 4° C. followed by removal of supernatant. The cells were lysed in PBS by sonication and fractionated (100,000×g, 45 min, 4° C.).The light and heavy soluble fractions were diluted to 2.3 mg/mL in PBS and 432 μL were used for analysis (1 mg total protein). The probe-modified proteomes were conjugated to desthiobiotin-PEG3-azide (10 μl of 10 mM stock in DMSO; 200 μM final concentration) using TCEP (10 μl of fresh 50 mM stock in water, 1 mM final concentration), TBTA ligand (33 μl of a 1.7 mM 4:1 t-butanol/DMSO stock, 100 μM final concentration) and CuSO4 (10 μl of 50 mM stock, 1 mM final concentration). Samples were vortexed to mix and incubated for 1 hr at room temperature. The heavy and light proteomes were mixed 1:1 and the subsequent steps, including LC-MS/MS data analysis, were performed as previously described^[8a].
# (§2) Coupling cell-based screens with chemical proteomics can facilitate the identification of target protein and binding sites that engage and are irreversibly modified by covalent ligands^[12]. In these assays, covalent ligands block SuTEx activity-based probe (ABP) labeling at protein sites, and the competition of probe labeling can be used to quantify potency and selectivity across the proteome^[10a]. To facilitate quantitative chemical proteomics, DM93 melanoma cells were cultured using stable isotopic labeling by amino acids in cell culture (SILAC)^[13]. Cells cultured in “light” media were treated with dimethyl sulfoxide (DMSO) vehicle while cells cultured in “heavy” media were treated with SuTEx ligand (25 μM, 2 hours, 37° C.). Next, cells were treated with HHS-475 probe (100 μM, 2 hours, 37° C.) followed by lysis and processing of proteomes for analysis. Probe-modified proteins from the soluble fraction were conjugated to a desthiobiotin-azide tag by copper-catalyzed azide-alkyne cycloaddition (CuAAC)^[14] followed by mixing of the light and heavy proteomes. The combined proteomes were digested with trypsin protease to produce probe-modified peptides, followed by enrichment and purification by avidin affinity chromatography. Probe-modified peptides were resolved, identified, and quantified by high-resolution liquid chromatography-tandem mass spectrometry (LC-MS/MS). Resultant data were analyzed as previously described^[8a, 10a]. Table 2, below, lists sites of modification targeted by sulfonyl-triazole compounds HHS-0101, HHS-0201, HHS-0301, HHS-0401, and HHS-0701. The format of the table is as follows: protein Uniprot accession number (see uniprot.org); tyrosine site (amino acid position) modified; treatment (sulfonyl-triazole compound identification number, followed by Y (where if multiple compounds modify the same site, the compounds are separated by vertical lines).
# [2] = biological target: T2, P11216 (Homo sapiens, UniProt P11216)
# T2 construct: endogenous in cells; host or cells: DM93 cells (SILAC)
# T2 sequence (P11216 whole entry): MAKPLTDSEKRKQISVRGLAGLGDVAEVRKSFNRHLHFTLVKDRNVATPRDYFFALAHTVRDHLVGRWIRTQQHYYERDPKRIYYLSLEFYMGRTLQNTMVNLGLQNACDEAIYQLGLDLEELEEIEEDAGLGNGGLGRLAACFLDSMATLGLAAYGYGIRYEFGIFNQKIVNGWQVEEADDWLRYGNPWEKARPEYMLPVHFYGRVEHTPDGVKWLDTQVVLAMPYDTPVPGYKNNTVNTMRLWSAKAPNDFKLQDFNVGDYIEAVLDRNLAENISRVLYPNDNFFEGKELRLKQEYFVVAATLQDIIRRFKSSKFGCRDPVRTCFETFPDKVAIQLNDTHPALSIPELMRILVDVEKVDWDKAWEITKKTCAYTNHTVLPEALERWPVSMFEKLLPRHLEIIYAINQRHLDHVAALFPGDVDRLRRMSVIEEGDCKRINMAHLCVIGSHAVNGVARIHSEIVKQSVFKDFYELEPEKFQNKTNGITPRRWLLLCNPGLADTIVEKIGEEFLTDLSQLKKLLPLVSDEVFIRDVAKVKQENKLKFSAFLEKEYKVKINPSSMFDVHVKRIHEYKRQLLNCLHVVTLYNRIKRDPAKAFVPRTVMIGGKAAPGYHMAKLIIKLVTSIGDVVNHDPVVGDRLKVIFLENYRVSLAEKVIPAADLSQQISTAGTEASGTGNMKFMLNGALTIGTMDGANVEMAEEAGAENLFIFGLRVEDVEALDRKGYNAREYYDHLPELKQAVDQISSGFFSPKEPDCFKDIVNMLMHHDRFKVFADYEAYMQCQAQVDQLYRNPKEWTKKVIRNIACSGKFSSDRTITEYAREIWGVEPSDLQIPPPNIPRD
# Experimental: as §1, §2
# [3] = biological target: T3, Q04637 (Homo sapiens, UniProt Q04637)
# T3 construct: performing SuTEx compound screening directly in cells; endogenous in cells; host or cells: DM93 cells (SILAC)
# T3 sequence (Q04637 whole entry): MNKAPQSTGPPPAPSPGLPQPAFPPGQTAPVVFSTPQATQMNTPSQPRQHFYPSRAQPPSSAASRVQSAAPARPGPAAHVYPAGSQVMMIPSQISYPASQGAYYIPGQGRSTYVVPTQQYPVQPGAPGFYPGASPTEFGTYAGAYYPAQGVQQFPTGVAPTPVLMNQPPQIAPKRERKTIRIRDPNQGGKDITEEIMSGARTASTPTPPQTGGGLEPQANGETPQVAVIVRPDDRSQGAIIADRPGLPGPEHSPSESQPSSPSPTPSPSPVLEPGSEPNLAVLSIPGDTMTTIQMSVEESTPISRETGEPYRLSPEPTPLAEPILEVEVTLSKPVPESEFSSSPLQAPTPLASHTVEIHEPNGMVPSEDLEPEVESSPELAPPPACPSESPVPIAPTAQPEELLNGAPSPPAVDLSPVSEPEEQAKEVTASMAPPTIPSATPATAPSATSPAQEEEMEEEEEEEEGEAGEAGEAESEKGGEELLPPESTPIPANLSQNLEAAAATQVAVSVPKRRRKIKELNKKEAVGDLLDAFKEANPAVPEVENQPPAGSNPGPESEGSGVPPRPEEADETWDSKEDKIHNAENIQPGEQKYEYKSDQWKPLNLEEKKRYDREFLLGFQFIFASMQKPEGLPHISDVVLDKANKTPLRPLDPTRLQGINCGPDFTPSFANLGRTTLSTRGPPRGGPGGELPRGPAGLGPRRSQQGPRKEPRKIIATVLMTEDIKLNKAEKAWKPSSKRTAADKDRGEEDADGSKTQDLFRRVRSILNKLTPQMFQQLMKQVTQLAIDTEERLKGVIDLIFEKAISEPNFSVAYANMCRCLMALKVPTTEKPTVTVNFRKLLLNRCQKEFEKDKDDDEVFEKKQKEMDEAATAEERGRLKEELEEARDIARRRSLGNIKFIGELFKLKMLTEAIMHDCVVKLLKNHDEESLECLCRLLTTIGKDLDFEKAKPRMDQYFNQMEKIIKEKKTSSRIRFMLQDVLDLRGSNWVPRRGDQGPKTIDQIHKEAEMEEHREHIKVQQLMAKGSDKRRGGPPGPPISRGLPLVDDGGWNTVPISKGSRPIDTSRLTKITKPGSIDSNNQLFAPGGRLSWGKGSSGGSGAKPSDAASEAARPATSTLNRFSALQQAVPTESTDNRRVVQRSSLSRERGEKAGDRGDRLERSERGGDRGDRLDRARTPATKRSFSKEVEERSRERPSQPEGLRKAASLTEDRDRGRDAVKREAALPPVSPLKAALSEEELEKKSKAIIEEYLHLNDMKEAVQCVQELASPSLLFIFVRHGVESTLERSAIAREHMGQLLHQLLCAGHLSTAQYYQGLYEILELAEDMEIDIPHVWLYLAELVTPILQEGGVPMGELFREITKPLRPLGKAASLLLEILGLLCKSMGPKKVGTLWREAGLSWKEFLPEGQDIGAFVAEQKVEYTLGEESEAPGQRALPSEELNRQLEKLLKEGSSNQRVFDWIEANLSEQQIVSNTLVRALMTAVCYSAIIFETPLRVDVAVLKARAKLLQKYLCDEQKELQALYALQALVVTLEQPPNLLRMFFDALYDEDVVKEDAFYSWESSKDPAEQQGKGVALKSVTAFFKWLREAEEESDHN
# Experimental: as §1, §2
# [4] = biological target: T4, Q14157 (Homo sapiens, UniProt Q14157)
# T4 construct: performing SuTEx compound screening directly in cells; endogenous in cells; host or cells: DM93 cells (SILAC), soluble fraction
# T4 sequence (Q14157 1-1087): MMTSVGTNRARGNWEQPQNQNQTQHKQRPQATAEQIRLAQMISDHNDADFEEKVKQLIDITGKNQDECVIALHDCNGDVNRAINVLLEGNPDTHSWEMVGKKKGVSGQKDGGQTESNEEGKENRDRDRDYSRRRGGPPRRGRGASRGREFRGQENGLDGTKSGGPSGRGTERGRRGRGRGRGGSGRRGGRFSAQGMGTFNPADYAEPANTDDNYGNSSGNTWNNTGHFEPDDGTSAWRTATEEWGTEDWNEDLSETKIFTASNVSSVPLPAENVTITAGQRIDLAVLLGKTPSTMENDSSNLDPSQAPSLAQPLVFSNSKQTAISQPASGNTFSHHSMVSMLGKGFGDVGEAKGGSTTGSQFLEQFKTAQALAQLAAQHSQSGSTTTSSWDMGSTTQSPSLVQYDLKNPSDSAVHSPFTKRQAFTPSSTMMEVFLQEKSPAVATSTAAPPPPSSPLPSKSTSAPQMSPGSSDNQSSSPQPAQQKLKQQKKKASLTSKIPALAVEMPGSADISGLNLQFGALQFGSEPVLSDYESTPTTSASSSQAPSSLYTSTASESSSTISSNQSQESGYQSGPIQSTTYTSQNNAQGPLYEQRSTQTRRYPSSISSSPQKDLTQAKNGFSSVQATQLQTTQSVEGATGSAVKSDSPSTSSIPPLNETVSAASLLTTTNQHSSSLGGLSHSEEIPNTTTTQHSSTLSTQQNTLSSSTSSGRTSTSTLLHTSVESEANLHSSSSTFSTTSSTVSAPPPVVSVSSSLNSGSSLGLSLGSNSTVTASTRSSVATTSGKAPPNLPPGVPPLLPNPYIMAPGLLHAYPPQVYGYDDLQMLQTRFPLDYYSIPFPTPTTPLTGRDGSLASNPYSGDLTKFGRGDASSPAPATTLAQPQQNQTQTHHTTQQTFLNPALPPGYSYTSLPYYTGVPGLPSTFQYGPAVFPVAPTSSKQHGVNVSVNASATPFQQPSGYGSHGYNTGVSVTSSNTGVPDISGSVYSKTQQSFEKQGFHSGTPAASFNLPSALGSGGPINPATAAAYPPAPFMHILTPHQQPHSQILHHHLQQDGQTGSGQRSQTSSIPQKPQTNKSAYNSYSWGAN
# Experimental: as §1, §2
# [5] = biological target: T5, Q9ULV4 (Homo sapiens, UniProt Q9ULV4)
# T5 construct: endogenous in cells; host or cells: DM93 cells (SILAC)
# T5 sequence (Q9ULV4 whole entry): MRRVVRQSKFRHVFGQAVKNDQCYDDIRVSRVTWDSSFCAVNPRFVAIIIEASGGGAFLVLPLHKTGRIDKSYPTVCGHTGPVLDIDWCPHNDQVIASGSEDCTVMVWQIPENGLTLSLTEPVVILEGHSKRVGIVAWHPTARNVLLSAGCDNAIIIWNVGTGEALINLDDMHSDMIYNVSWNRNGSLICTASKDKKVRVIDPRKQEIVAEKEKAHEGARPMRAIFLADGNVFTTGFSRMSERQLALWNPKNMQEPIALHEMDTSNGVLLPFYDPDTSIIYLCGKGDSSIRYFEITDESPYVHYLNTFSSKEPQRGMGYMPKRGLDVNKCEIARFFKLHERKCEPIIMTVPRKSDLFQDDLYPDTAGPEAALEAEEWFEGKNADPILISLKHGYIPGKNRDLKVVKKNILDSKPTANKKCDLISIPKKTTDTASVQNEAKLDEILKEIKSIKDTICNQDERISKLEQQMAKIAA
# Experimental: as §1, §2
structure (smiles),measurement,setting,value
"O=C(NC1CC1)c1ccc(S(=O)(=O)n2cncn2)cc1 [HHS-0101, 4-((1H-1,2,4-triazol-1-yl)sulfonyl)-N-cyclopropylbenzamide]",liganded tyrosine site 9,[1],HHS0101.Y (tyrosine sites that showed >80% reductions (SR >5) in probe labeling in cells treated with compounds (liganded sites))
same,liganded tyrosine site 473,[2],HHS0101.Y (tyrosine sites that showed >80% reductions (SR >5) in probe labeling in cells treated with compounds (liganded sites))
"O=C(NCC1CC1)c1ccc(S(=O)(=O)n2cncn2)cc1 [HHS-0201, 4-((1H-1,2,4-triazol-1-yl)sulfonyl)-N-(cyclopropylmethyl)benzamide]",liganded tyrosine site 204,[2],HHS0201.Y (tyrosine sites that showed >80% reductions (SR >5) in probe labeling in cells treated with compounds (liganded sites))
same,liganded tyrosine site 103,[3],HHS0201.Y|HHS0301.Y|HHS0401.Y|HHS0701.Y (tyrosine sites that showed >80% reductions (SR >5) in probe labeling in cells treated with compounds (liganded sites))
same,liganded tyrosine site 204,[4],HHS0201.Y (tyrosine sites that showed >80% reductions (SR >5) in probe labeling in cells treated with compounds (liganded sites))
same,liganded tyrosine site 214,[4],HHS0201.Y (tyrosine sites that showed >80% reductions (SR >5) in probe labeling in cells treated with compounds (liganded sites))
"O=C(NC1CCCCC1)c1ccc(S(=O)(=O)n2cncn2)cc1 [HHS-0301, 4-((1H-1,2,4-triazol-1-yl)sulfonyl)-N-cyclohexylbenzamide]",liganded tyrosine site 81,[3],HHS0301.Y (tyrosine sites that showed >80% reductions (SR >5) in probe labeling in cells treated with compounds (liganded sites))
same,liganded tyrosine site 104,[3],HHS0301.Y|HHS0701.Y (tyrosine sites that showed >80% reductions (SR >5) in probe labeling in cells treated with compounds (liganded sites))
same,liganded tyrosine site 301,[5],HHS0301.Y (tyrosine sites that showed >80% reductions (SR >5) in probe labeling in cells treated with compounds (liganded sites))
"O=C(NCc1ccccc1)c1ccc(S(=O)(=O)n2cncn2)cc1 [HHS-0401, 4-((1H-1,2,4-triazol-1-yl)sulfonyl)-N-benzylbenzamide]",liganded tyrosine site 109,[1],HHS0401.Y (tyrosine sites that showed >80% reductions (SR >5) in probe labeling in cells treated with compounds (liganded sites))
same,liganded tyrosine site 803,[4],HHS0401.Y (tyrosine sites that showed >80% reductions (SR >5) in probe labeling in cells treated with compounds (liganded sites))
"O=C(c1ccc(S(=O)(=O)n2cncn2)cc1)N1CCC(c2ccccc2)CC1 [HHS-0701, (4-((1H-1,2,4-triazol-1-yl)sulfonyl)phenyl)(4-phenylpiperidin-1-yl)methanone]",liganded tyrosine site 304,[5],HHS0701.Y (tyrosine sites that showed >80% reductions (SR >5) in probe labeling in cells treated with compounds (liganded sites))
